Results taken from patent US9840481B2, “Allosteric modulators of nicotinic acetylcholine receptors” (MERCK SHARP & DOHME CORP., priority 2016, dated 2017).

Target: T1, human α7 nAChR stably expressed in a HEK cell line (with human RIC-3) (Homo sapiens, UniProt P36544)
T1 construct: PrecisION hnAChR α7/RIC-3
Experiment: Automated patch-clamp electrophysiology functional assay (Assay A), IonFlux HT, whole-cell population patch
Assay type: cell-based
Details: automated patch-clamp electrophysiology functional assay (Assay A); potency class by EC50; read-out: α7 nAChR Potency
How it was run: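 Whole-cell population patch clamp (IonFlux HT) used HEK cells stably co-expressing human α7 and RIC-3, held at −60 mV at room temperature. Compounds were applied alone (agonism) or with 40 μM acetylcholine (potentiation), three ascending concentrations per recording. Currents were quantified relative to a 40 μM acetylcholine reference response, giving EC50.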

T1 sequence (P36544 23-502): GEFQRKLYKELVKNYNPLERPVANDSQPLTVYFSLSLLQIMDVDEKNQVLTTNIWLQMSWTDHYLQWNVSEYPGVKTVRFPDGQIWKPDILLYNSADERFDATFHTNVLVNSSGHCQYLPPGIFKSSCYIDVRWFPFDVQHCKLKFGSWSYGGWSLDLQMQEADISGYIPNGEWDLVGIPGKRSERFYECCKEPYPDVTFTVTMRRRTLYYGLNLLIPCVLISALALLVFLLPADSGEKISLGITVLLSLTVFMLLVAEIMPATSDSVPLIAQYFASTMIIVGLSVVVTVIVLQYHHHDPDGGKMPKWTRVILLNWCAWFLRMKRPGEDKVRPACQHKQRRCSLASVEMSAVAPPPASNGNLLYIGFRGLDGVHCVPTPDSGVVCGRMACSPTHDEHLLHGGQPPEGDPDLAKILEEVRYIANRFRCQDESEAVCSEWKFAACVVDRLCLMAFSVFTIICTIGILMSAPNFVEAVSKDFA

EC50: 500 to 5000 nM
SMILES: NS(=O)(=O)c1ccc([C@@H]2C[C@H]2c2cnc(-c3ccccc3)o2)cc1 [Example L3]
